pKi: −log10 of the molar value. Values joined by “and” are separate entries in the source; they are usually repeats but may differ in a detail not shown here. Equal values may be shown once.
Assays:
Test in all cases: binding to AX14596 beads (HeLa lysate, SILAC MS)
[1] = target: T1, CDA (Homo sapiens, UniProt P32320)
T1 construct: endogenous in cells; host or cells: HeLa S3

[2] = target: T2, EGFR (Homo sapiens, UniProt P00533)
T2 construct: endogenous in cells; host or cells: HeLa S3

[3] = target: T3, GAK (Homo sapiens, UniProt O14976)
T3 sequence (O14976 1-1311): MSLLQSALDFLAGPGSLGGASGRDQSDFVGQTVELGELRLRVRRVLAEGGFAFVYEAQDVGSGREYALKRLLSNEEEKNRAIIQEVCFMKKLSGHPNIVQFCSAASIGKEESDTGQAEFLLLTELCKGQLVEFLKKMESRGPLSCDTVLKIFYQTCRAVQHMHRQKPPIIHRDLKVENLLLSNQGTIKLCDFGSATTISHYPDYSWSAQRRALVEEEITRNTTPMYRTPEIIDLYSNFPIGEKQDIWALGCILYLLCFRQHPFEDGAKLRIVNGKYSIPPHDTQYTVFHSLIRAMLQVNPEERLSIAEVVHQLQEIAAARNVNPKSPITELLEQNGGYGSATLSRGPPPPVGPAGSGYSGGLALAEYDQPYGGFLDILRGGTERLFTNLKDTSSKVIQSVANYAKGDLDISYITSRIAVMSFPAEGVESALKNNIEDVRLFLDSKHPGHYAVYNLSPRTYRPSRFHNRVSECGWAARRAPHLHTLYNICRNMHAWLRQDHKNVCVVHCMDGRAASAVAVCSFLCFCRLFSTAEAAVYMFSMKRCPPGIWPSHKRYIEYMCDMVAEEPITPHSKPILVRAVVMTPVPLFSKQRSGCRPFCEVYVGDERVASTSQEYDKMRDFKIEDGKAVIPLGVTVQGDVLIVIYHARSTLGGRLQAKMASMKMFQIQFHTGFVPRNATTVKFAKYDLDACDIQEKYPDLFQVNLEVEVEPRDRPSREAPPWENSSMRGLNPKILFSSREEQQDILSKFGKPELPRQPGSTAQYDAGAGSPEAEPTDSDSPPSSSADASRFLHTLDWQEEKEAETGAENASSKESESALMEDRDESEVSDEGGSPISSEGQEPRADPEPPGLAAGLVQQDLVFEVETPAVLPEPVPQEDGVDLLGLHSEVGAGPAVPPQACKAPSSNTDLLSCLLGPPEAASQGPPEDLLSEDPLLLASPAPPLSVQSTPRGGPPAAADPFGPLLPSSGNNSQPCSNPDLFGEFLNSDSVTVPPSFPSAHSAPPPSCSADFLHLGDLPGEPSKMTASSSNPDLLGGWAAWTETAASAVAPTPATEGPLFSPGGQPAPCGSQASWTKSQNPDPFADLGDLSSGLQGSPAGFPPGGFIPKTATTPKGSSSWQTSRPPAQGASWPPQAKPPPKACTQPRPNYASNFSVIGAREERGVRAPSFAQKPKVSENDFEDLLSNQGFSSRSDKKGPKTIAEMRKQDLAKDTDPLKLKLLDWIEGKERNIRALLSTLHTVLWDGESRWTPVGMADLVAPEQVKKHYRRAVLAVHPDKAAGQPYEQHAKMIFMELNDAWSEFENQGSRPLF

T2 sequence (P00533 25-1210): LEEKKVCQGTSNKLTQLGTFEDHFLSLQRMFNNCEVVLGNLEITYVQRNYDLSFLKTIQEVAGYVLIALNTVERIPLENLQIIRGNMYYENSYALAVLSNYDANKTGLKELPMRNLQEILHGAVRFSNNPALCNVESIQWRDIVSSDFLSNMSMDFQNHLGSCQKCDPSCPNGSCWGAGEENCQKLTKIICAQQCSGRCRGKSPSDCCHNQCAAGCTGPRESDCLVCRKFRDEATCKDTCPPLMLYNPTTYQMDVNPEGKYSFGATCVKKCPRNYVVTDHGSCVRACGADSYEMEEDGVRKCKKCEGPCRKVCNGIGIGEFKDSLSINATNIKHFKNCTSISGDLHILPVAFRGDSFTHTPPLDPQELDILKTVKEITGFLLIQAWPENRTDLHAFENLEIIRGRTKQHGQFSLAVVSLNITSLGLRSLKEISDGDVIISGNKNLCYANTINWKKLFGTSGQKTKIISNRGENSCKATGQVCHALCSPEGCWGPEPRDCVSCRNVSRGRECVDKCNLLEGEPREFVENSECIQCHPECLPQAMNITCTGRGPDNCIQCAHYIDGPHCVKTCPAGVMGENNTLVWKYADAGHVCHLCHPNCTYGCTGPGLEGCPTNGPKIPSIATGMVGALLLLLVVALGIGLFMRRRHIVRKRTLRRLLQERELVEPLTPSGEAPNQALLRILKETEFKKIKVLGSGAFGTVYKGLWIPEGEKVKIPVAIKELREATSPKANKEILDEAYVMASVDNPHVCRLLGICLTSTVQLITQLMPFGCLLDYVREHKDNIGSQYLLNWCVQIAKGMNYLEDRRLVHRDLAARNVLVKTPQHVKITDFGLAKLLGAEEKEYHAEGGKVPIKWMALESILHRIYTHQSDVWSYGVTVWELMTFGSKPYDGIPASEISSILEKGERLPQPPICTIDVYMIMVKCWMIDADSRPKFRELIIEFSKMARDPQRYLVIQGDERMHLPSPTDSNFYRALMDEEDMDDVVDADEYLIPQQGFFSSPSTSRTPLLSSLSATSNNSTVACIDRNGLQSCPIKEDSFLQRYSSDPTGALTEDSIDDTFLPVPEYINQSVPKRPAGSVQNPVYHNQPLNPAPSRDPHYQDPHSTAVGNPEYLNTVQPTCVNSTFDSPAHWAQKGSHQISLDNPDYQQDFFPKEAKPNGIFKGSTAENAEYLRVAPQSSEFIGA
T1 sequence (P32320 whole entry): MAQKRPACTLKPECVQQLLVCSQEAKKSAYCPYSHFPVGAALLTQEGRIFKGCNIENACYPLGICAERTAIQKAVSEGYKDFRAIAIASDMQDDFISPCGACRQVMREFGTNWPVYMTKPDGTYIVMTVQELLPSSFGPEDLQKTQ

COc1cc2ncnc(Nc3ccc(F)c(Cl)c3)c2cc1OCCCN [AX14596]
pKi [1]: 3.40
r (3 mg/1 mg lysate) [1]: 3.09
rAVERAGE (2. inc/1. inc) [1]: 0.80
rAVERAGE (control/1. inc) [1]: 0.09
pKi [2]: 4.36 and 4.35
r (3 mg/1 mg lysate) [2]: 2.65
r (5 h/2.5 h inc. time) [2]: 0.90
rAVERAGE (2. inc/1. inc) [2]: 0.31
rAVERAGE (control/1. inc) [2]: 0.03
% BOUND ([2]; bound to AX14596 beads): 69%
pKi [3]: 4.09
r (3 mg/1 mg lysate) [3]: 2.59
r (5 h/2.5 h inc. time) [3]: 1.05
rAVERAGE (2. inc/1. inc) [3]: 0.45
rAVERAGE (control/1. inc) [3]: 0.04
% BOUND ([3]; bound to AX14596 beads): 55%

Source: patent US8959984B2, “Proteome-wide quantification of small molecule binding to cellular target proteins” (priority 2007, dated 2015)
